Data published in patent US6384061B1, “Hydantoin compounds and methods related thereto” (LG Chemical Ltd., priority 2000, dated 2002).

Tests used:
Ras farnesyl transferase = target: T1, Ras farnesyl transferase (Homo sapiens, UniProt P49354+P49356); test: Ras farnesyl transferase inhibiting activity (filter-binding, tritium-farnesylpyrophosphate, Ras-CVLS substrate); format: biochemical; details: recombinant Ras farnesyl transferase, 30 minutes at 37° C., read-out: Ftase IC50
T1 construct: made in house

[1] = system: intracellular Ras farnesyl transferase, Rat2 cell line; test: Intracellular Ras farnesyl transferase inhibiting activity in transformed Rat2 cells (35S-methionine labelling, Y13-259 immunoprecipitation, SDS-PAGE); format: cell-based; details: Rattus norvegicus; transformed Rat2 fibroblast cell line; concentration inhibiting 50% of farnesyl binding of Ras protein; read-out: Ftase CIC50
Summary of the method: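 Rat2 fibroblasts transformed with H-Ras, or with H-Ras carrying the K-Ras polybasic lysine C-terminus, were treated with compound (1% DMSO). After 4 h they were labelled for 20 h with 150 μCi/ml 35S-methionine. Lysates were immunoprecipitated with Y13-259, run on 13.5% SDS-PAGE and autoradiographed; CIC50 is the concentration halving farnesylated versus unfarnesylated Ras band intensity.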

[2] = target: T2, Geranylgeranyl transferase (Bos taurus, UniProt P29702+Q5EAD5); test: Geranylgeranyl transferase inhibiting activity (geranylgeranyl pyrophosphate, Ras-CVIL substrate); format: biochemical; details: geranylgeranyl transferase purified from bovine brain, read-out: GGtase IC50
T2 construct: Geranylgeranyl transferase was purified from bovine brain; from tissue; host or cells: bovine brain
Summary of the method: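 Bovine-brain-purified enzyme run as in the farnesyl transferase assay, with geranylgeranyl pyrophosphate and Ras-CVIL substrate protein under similar reaction conditions.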

SMILES | IC50 (Ras farnesyl transferase) [µM] | IC50 [2] [µM] | IC50 [1] [µM]
CC1(c2cccc3ccccc23)C(=O)N(CCCc2cncn2Cc2ccc(C#N)cc2)C(=O)N1Cc1ccccc1 (stereo not drawn) [Compound 53, 4-(5-{3-[3-benzyl-4-methyl-4-naphthalen-1-yl-2,5-dioxo-imidazolidin-1-yl]-propyl}-imidazol-1-ylmethyl)-benzonitrile] | 0.065 | > 10 | < 20
CC1(c2cccc3ccccc23)C(=O)N(CCCn2ccnc2)C(=O)N1Cc1ccc(Br)cc1 (stereo not drawn) [Compound 21, 1-(4-bromo-benzyl)-3-(3-imidazol-1-yl-propyl)-5-methyl-5-naphthalen-1-yl-imidazolidin-2,4-dione] | 0.15 | > 10 | < 20
CC1(c2cccc3ccccc23)C(=O)N(CCCn2ccnc2)C(=O)N1Cc1ccccc1C#N (stereo not drawn) [Compound 31, 2-[3-(3-imidazol-1-yl-propyl)-5-methyl-5-naphthalen-1-yl-2,4-dioxo-imidazolidin-1-ylmethyl]-benzonitrile] | 0.9 | > 10 | < 20
CC1(c2cccc3ccccc23)C(=O)N(CCCn2ccnc2)C(=O)N1Cc1cccc(C#N)c1 (stereo not drawn) [Compound 32, 3-[3-(3-imidazol-1-yl-propyl)-5-methyl-5naphthalen-1-yl-2,4-dioxo-imidazolidin-1-ylmethyl]-benzonitrile] | 0.092 | > 10 | < 20
CC1(c2cccc3ccccc23)C(=O)N(CCCn2ccnc2)C(=O)N1Cc1c(F)c(F)c(F)c(F)c1F (stereo not drawn) [Compound 17, 1-(pentafluoro-benzyl)-3-(3-imidazol-1-yl-propyl)-5-methyl-5-naphthalen-1-yl-imidazolidin-2,4-dione] | 1.5 | > 10 | < 20

The next lines start with results.

IC50 (Ras farnesyl transferase) [µM] | IC50 [2] [µM] | SMILES | IC50 [1] [µM]
0.7 | > 10 | CSc1ccc(CN2C(=O)N(CCCn3ccnc3)C(=O)C2(C)c2cccc3ccccc23)cc1 (stereo not drawn) [Compound 26, 3-(3-imidazol-1-yl-propyl)-1-(4-methylsulfanyl-benzyl)-5-methyl-5-naphthalen-1-yl-imidazolidin-2,4-dione] | < 20
0.001 | > 10 | CSCCC(NC(=O)CN1C(=O)N(CCCn2ccnc2)C(=O)C1(C)c1cccc2ccccc12)C(=O)O (stereo not drawn) [Compound 14, 2-{2-[3-(3-imidazol-1-yl-propyl)-5-methyl-5-naphthalen-1-yl-2,4-dioxo-imidazolidin-1-yl]-acetylamino}-4-methylsulfanyl-butyric acid] | < 20
